IC50 data for 20 compounds are collected here from patent US11697646B2, “Triazole N-linked carbamoyl cyclohexyl acids as LPA antagonists” (BRISTOL-MYERS SQUIBB COMPANY, priority 2017, dated 2023).

Where a name gives a salt, the structure may show the parent alone.

One assay deals with T1, human LPA1 (Homo sapiens, UniProt Q92633).
T1 construct: expressed in transfected cells; host or cells: Chinese hamster ovary (CHO) cells
T1 sequence (Q92633 whole entry): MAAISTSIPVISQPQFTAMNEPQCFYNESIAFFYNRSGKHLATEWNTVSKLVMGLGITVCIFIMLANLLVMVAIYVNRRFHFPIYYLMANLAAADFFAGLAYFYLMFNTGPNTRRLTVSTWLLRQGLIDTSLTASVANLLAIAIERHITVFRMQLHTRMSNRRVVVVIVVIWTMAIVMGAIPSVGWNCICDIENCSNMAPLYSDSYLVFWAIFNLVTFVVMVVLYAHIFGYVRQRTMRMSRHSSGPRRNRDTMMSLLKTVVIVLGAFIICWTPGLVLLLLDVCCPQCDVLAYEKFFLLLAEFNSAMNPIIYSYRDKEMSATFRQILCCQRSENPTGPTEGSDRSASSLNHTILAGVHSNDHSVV
Put plainly: LPA1 functional antagonist assay (calcium flux). The format is cell-based. As to conditions: CHO cells overexpressing human LPA1; calcium flux induced by 10 nM LPA; read-out: hLPA1 IC50. How it is done:
The effectiveness of compounds of the present invention as LPA1 inhibitors can be determined in an LPA1 functional antagonist assay as follows:
The cells were then equilibrated to room temperature for 30 minutes before the assay. […] IC50 values were determined by fitting data to a 4-parameter logistic equation (GraphPad Prism, San Diego Calif.).
A general note: Calcium assays in cells follow changes in intracellular calcium, usually with a dye or a luminescent sensor.
As to `Cc1nc(-c2nnn(C)c2CNC(=O)OCC2(F)CC2)ccc1O[C@H]1CCC[C@H](C(=O)O)C1` [Example 49, (1S,3S)-3-((6-(5-(((((1-fluorocyclopropyl)methoxy)carbonyl)amino)methyl)-1-methyl-1H-1,2,3-triazol-4-yl)-2-methylpyridin-3-yl)oxy)cyclohexane-1-carboxylic acid], the IC50 was 602 nM. With `Cc1nc(-c2nnn(C)c2CNS(=O)(=O)NCc2ccccc2)ccc1O[C@H]1CCC[C@H](C(=O)O)C1` [Example 227, (1S,3S)-3-((6-(5-(((N-benzyl-sulfamoyl)amino)methyl)-1-methyl-1H-1,2,3-triazol-4-yl)-2-methyl-pyridin-3-yl)oxy)cyclohexane-1-carboxylic acid], the concentration for half-maximal inhibition (IC50) turned out to be 1800 nM. Still for that read-out and setting: the figure for `Cc1nc(-c2nnn(C)c2NC(=O)OCC2CC2)c(F)cc1O[C@H]1CCC[C@H](C(=O)O)C1` [Example 218, (1S,3S)-3-{[6-(5-{[(cyclopropylmethoxy)carbonyl]amino}-1-methyl-1H-1,2,3-triazol-4-yl)-5-fluoro-2-methylpyridin-3-yl]oxy} cyclohexane-1-carboxylic acid] is 300 nM; for `Cc1nc(-c2nnn(C)c2CNC(=O)OC[C@@H]2CC2(F)F)ccc1O[C@H]1CCC[C@H](C(=O)O)C1` [Example 208, (1S,3S)-3-((6-(5-((((((S)-2,2-difluorocyclopropyl)methoxy)carbonyl)amino)methyl)-1-methyl-1H-1,2,3-triazol-4-yl)-2-methylpyridin-3-yl)oxy)cyclohexane-1-carboxylate diethylammonium salt] it is 57 nM.

In the case of `CCCCOC(=O)N(C)Cc1c(-c2ccc(O[C@H]3CCC[C@H](C(=O)O)C3)c(C)n2)nnn1C` [Example 36, (1S,3S)-3-((6-(5-(((butoxycarbonyl)(methyl)amino)methyl)-1-methyl-1H-1,2,3-triazol-4-yl)-2-methyl-pyridin-3-yl)oxy)cyclohexane carboxylic acid], the IC50 is 19 nM.

For `CCCCOC(=O)NCc1c(-c2ccc(O[C@H]3CCC[C@H](C(=O)O)C3)cn2)nnn1C` [Example 5, (1S,3S)-3-((6-(5-(((butoxycarbonyl)amino)methyl)-1-methyl-1H-1,2,3-triazol-4-yl)pyridin-3-yl)oxy)cyclohexane-1-carboxylic acid], the half-maximal inhibitory concentration (IC50) turned out to be 96 nM. Still for that read-out and setting: the figure for `CCC1(COC(=O)NCc2c(-c3nc(C)c(O[C@H]4CCC[C@H](C(=O)O)C4)cc3F)nnn2C)CC1` [Example 216, (1S,3S)-3-((6-(5-(((((1-ethylcyclo-propyl)methoxy)carbonyl)amino)methyl)-1-methyl-1H-1,2,3-triazol-4-yl)-5-fluoro-2-methylpyridin-3-yl)oxy)cyclohexane-1-carboxylic acid] is 46 nM. Same read-out and setting: under `Cc1nc(-c2nnn(C)c2CNC(=O)OCCCF)ccc1O[C@H]1CCC[C@H](C(=O)O)C1` [Example 55, (1S,3S)-3-((6-(5-((((3-fluoropropoxy)carbonyl)amino)methyl)-1-methyl-1H-1,2,3-triazol-4-yl)-2-methylpyridin-3-yl)oxy)cyclohexane-1-carboxylic acid] stands 411 nM; under `CCCCCOC(=O)N(C)Cc1c(-c2ccc(O[C@H]3CCC[C@H](C(=O)O)C3)cn2)nnn1C` [Example 15, (1S,3S)-3-((6-(1-methyl-5-((methyl((pentyloxy)carbonyl)amino)methyl)-1H-1,2,3-triazol-4-yl)pyridin-3-yl)oxy)cyclohexane-1-carboxylic acid], 130 nM; under `Cc1nc(-c2nnn(C)c2CCNC(=O)OCc2ccccc2)ccc1O[C@H]1CCC[C@H](C(=O)O)C1` [Example 106, (1S,3S)-3-((6-(5-(2-(((benzyloxy)carbonyl)amino)ethyl)-1-methyl-1H-1,2,3-triazol-4-yl)-2-methylpyridin-3-yl)oxy)cyclohexane-1-carboxylic acid], 525 nM. On the same count and under the same terms, under `CCC1(COC(=O)NCc2c(-c3ccc(O[C@H]4CCC[C@H](C(=O)O)C4)cn3)nnn2C)CC1` [Example 51, (1S,3S)-3-((6-(5-(((((1-ethylcyclopropyl)methoxy)carbonyl)amino)methyl)-1-methyl-1H-1,2,3-triazol-4-yl)pyridin-3-yl)oxy)cyclohexane-1-carboxylic acid] stands 62 nM. Turning to `Cc1nc(-c2nnn(C)c2CCNC(=O)OCc2ccccc2Cl)ccc1O[C@H]1CCC[C@H](C(=O)O)C1` [Example 103, (1S,3S)-3-((6-(5-(2-((((2-chloro-benzyl)oxy)carbonyl)amino)ethyl)-1-methyl-1H-1,2,3-triazol-4-yl)-2-methylpyridin-3-yl)oxy)cyclohexane-1-carboxylic acid], the 50% inhibitory concentration (IC50) amounted to 595 nM. The same measure, in the same setting: under `Cc1nc(-c2nnn(C)c2NC(=O)OCC2CCC2)ccc1O[C@H]1CCC[C@H](C(=O)O)C1` [Example 75] stands 22 nM; under `Cc1cccc(COC(=O)NCc2c(-c3ccc(O[C@H]4CCC[C@H](C(=O)O)C4)c(C)n3)nnn2C)c1` [Example 19, (1S,3S)-3-((2-methyl-6-(1-methyl-5-(((((3-methylbenzyl)oxy)carbonyl)amino)methyl)-1H-1,2,3-triazol-4-yl)pyridin-3-yl)oxy)cyclohexane-1-carboxylic acid], 4 nM; under `Cc1nc(-c2nnn(C)c2CNC(=O)OCC2(C)CC2)ccc1O[C@H]1CCC[C@H](C(=O)O)C1` [Example 59, (1S,3S)-3-((2-methyl-6-(1-methyl-5-(((((1-methylcyclopropyl)methoxy)carbonyl)amino)methyl)-1H-1,2,3-triazol-4-yl)pyridin-3-yl)oxy)cyclohexane-1-carboxylic acid], 48 nM. Still for that read-out and setting: under `CCCC(C)OC(=O)Nc1c(-c2ccc(O[C@H]3CCC[C@H](C(=O)O)C3)c(C)n2)nnn1C` (stereo partly drawn) [Example 140, (1S,3S)-3-((2-methyl-6-(1-methyl-5-(((pentan-2-yloxy)carbonyl)amino)-1H-1,2,3-triazol-4-yl)pyridin-3-yl)oxy)cyclohexane-1-carboxylic acid] stands 29 nM; under `Cc1nc(-c2nnn(C)c2CNC(=O)OCC(C)(C)C)ccc1O[C@H]1CCC[C@H](C(=O)O)C1` [Example 22, (1S,3S)-3-((2-methyl-6-(1-methyl-5-((((neopentyloxy)carbonyl)amino)methyl)-1H-1,2,3-triazol-4-yl)pyridin-3-yl)oxy)cyclohexane-1-carboxylic acid], 35 nM; under `Cc1nc(-c2nnn(C)c2NC(=O)OC(C)C)ccc1O[C@H]1CCC[C@H](C(=O)O)C1` [Example 70, (1S,3S)-3-((6-(5-((isopropoxycarbonyl)amino)-1-methyl-1H-1,2,3-triazol-4-yl)-2-methylpyridin-3-yl)oxy)cyclohexane-1-carboxylic acid], 129 nM.

`Cc1ccc(OC(=O)NCc2c(-c3ccc(O[C@H]4CCC[C@H](C(=O)O)C4)c(C)n3)nnn2C)cc1` [Example 62, (1S,3S)-3-((2-methyl-6-(1-methyl-5-((((p-tolyloxy)carbonyl)amino)methyl)-1H-1,2,3-triazol-4-yl)pyridin-3-yl)oxy)cyclohexane-1-carboxylic acid]: the IC50 amounted to 148 nM.

The assay is the same for the next values; noted with them: human LPA1 functional antagonist assay; read-out: hLPA1 IC50.
Turning to `Cc1nc(-c2nnn(C)c2CNC(=O)OC[C@H]2C[C@@H]2C)ccc1O[C@H]1CCC[C@H](C(=O)O)C1` (stereo in doubt) [Example 183, (1S,3S)-3((2-methyl-6-(1-methyl-5-(((((trans-2-methylcyclopropyl)methoxy)carbonyl)amino)methyl)-1H-1,2,3-triazol-4-yl)pyridin-3-yl)oxy)cyclohexane-1-carboxylic acid], the IC50 worked out at 32 nM.

Usually IC50 stands for the concentration at which inhibition is half-maximal.
